According to patent publication US6399590B2, “Phosphoglycolipid and methods for its use” (Corixa Corporation, priority 1998, dated 2002):

Test system: pig model of regional myocardial ischemia/reperfusion
Experiment: Infarct size in pigs, 40 min LAD occlusion and 3 h reperfusion
Type: in vivo
Conditions: i.v. 10 min prior to coronary artery occlusion (35 μg/kg); FIG. 4
Description: To assess the efficacy of L34 to reduce infarct size, nine pigs were assigned in a non-blinded fashion to one of four groups: (1) control (n=2), (2) vehicle control (n4), (3) L34 (35 μg/kg) (n=2), (4) L34 (70 μg/kg) (n=1). L34 was formulated in 10% ethanol, 40% propylene glycol in Water for Injection. Blinded studies were additionally conducted with eight pigs randomly assigned to one of two treatment groups: (1) A (n=4), (2) B (n=4). Group A and B were either vehicle control or L34. Vehicle or drug injection was diluted one to one with 5% dextrose in Water for Injection prior to administration.
Male pigs (15-20 kg) were anesthetized with ketamine (25 mg/kg, i.m.) and sodium pentobarbital (10 mg/kg, i.v.), intubated and mechanically ventilated with room air. Pigs were placed on a 37° C. circulating water heating pad. The left carotid artery of each animal was cannulated with 5Fr Millar catheter for measuring left ventricular pressure and the right carotid artery was cannulated with 24G I.V. catheter for sampling blood. A median sternotomy was performed and the pericardium was incised. […]
Following 40 min of occlusion, the snare was released and the myocardium was reperfused for 3 h. The hemodynamic parameters at certain time points were recorded and blood samples were collected. […]

CCCCCCCCCCCCCCCCCC(=O)O[C@H](CCCCCCCCCCC)CC(=O)N[C@H]1[C@H](OC[C@H]2OC(O)[C@H](NC(=O)C[C@@H](CCCCCCCCCCC)OC(=O)CCCCCCCCCCCCCCC)[C@@H](O)[C@@H]2O)O[C@H](CO)[C@@H](OP(=O)(O)O)[C@@H]1OC(=O)C[C@@H](CCCCCCCCCCC)OC(=O)CCCCCCCCCCCCC (stereo partly drawn) [L34, 2-Deoxy-6-O-[2-deoxy-4-O-phosphono-3-O-[(R)-3-tetradecanoyloxytetradecanoyl]-2-[(R)-3-octadecanoyloxytetradecanoylamino]-β-D-glucopyranosyl]-2-[(R)-3-hexadecanoyloxytetradecanoylamino]-D-glucopyranose]
reduction in infarct size expressed as % AN/AR in g compared to controls: 46%
